Reference: article PMC10541198, “Specific quinone reductase 2 inhibitors reduce metabolic burden and reverse Alzheimer’s disease phenotype in mice” (The Journal of Clinical Investigation, 2023)
Where “and” joins values, the source holds several entries; their conditions need not be identical. Identical values can stand only once. Entries after “also recorded” stand apart in the source; their conditions may differ. Blank lines part the entries; values can stand above or below the molecule they belong to.

Experiments:
QR1 = target: T1, QR1 (Homo sapiens, UniProt P15559); assay: QR1 selectivity assay, fluorescence; assay type: biochemical; conditions: Figure 2D; readout not stated
T1 construct: purchased Sigma-Aldrich
Text: A drug discovery campaign strategy was initiated to screen compounds for QR2-specific, cell-free inhibition and in vitro activity, followed by SAR optimization (Figure 2A) to achieve highly specific and potent QR2 inhibitor synthesis. In order to establish a varied and chemically amenable starting point, we developed a high-throughput QR2 assay (Supplemental Methods) that we screened against a library with approximately 200,000 compounds. […] Compounds that replicated the initial hit result were then assayed similarly against QR1 to evaluate compound specificity (Figure 2B). From the HTS, a chemically tractable and attractive series of compounds containing a sulfone flanked by an amine and a heterocycle were identified and selected for SAR development (Figure 2C, Supplemental Methods, Supplemental Table 1, and Supplemental Table 2). […]
menadione and 10 nM of QR2) were dispensed in 1536-well black Nunc plates (Thermo-Fisher) using aMultidrop™ Combi Reagent Dispenser (Thermo-Fisher) and pre-incubated with compounds for 10min. BNAH (200µM) was t hen added (3 µL) to the reaction using a BioNex Solutions BNX1536plate washer and the plates were incubated for another 10 min. Fluorescence intensity was followed in a PHERAstar FS multi-mode plate reader (BMG Labtech) us i ng an optic module with excitation at 360 nm and emission at 470 nm. The initial HTS includedapproximately 200,000 compounds at a single concentrationof 5 µM. The chemical libraries used were Selleck Chemicals Bioactives, the Drug-like set from Enamine, HitFinder collection from Maybridge, Spectrum Collection from Microsource, Lopa c from Sigma -Aldrich and the diversity set s from Chem Div and Che m Br idge .
Initial ‘‘hit’’ compounds were defined as causing >30% reduction of enzyme activity. Compounds suspected to be fluorescent were re -assayed in an absorbance assay at 350 nm using the same reaction but in a higher volume (100 µL), in a transparent plate (Greiner Bio- One). ‘‘Hit’’ compounds resulting from both the fluorescence and absorbance assay wer e t ested in a concentration- response, and IC50 values were de t er mi ne d. In parallel, the same

p-tau = assay: IHC of p-tau (AT8) in 5xFAD brain sections; assay type: in vivo, mouse; conditions: for p-tau normalized volume (individual mice): CA1, 5xFAD 1 month; for Figure 9C, IHC signal / Sup. Fig. 6-1C, IHC signal: individual animals; for p-Tau vs vehicle: cortex, 5xFAD 1 month
Text: Following the behavioral experiments, we assessed brain pathologies associated with AD present in the 5xFAD mice ([37]). Therefore, 5 days following the last behavioral experiment, and 1 month after the start of YB-537 consumption, mice were sacrificed, and coronal brain sections were used for IHC. Since the CA1 region of the hippocampus is affected during AD pathogenesis ([37]), and this brain region is involved in the behavioral paradigms used here, we acquired images of CA1. This was done with an Olympus IX83 confocal microscope using the same settings, antibodies, and exposures in all mice. Images were analyzed using Imaris (Bitplane; see methods). For each mouse, 3 coronal sections were used per antibody. In each section, the same region of CA1 was acquired, using the same image frame size and resolution, at all possible depths of the section — using a Z-stack of the whole section — to allow measurement of the fluorescent antibody marker volume, which was normalized to the brain volume from which it was taken. First, we measured oxidative stress, as indicated by 4-HNE ([38]) (Abcam, ab48506).
Perfused and fixed brain slices were blocked with 10% normal donkey serum (DNS) and 0.2% triton (Sigma-Aldrich) in PBS. Antibodies, including 4-HNE (AbCam, ab48506), Iba1 (AbCam, ab5076), AT-8 (Thermo, MN1020), Amyloid β (AbCam, ab201060), diluted in PBS with 10% DNS, were incubated at 4°C overnight. Secondary antibodies including donkey-anti-goat Alexa Fluor 568 (AbCam, ab175704), donkey-anti-mouse Cy 5 (Jackson Immuno Research, 715-175-151), and donkey-anti-rabbit DyLight 488 (AbCam, ab98488) all diluted 1:500 in PBS with 1% BSA, were applied to the slices at RT for 2 hours the next day. Slices were mounted onto glass slides using DAPI containing Vectashield (H-1200). Images were taken using a confocal microscope (Olympus IX83). Three slices were used per mouse per antibody. Tiling images of the dorsal CA1 and cortex (Bregma: –1.58mm to –2.30mm) were taken using ×20 objective, acquiring a Z-stack of the whole section. Analysis of the images was done blind by an experimenter unaware of the experimental conditions or details, using Imaris (Bitplane) software. A surface reconstruction module was used to extract the data as volumes of the used markers (4-HNE, phospho-tau, amyloid β, GFAP, and Iba1). Marker volume and intensity were normalized to the corresponding brain volume. The normalized value was averaged for each triplicate and presented here. […]
Brains were then briefly removed and placed in chilled, 4% PFA for 48 h, f oll owe d by immersion in 30% sucrose in 0.1 M PBS for a furt her 48 h. Bra i ns wer e t h e n stored at -80°C, until t he y were sliced into 40µm coronal sections usinga Lei ca CM 1950cryostat. Sli ces were then washed x3 in PBS and bl oc ke d for 1 h at RT using 10% normal donkey serum (DNS) and 0.2% triton (Sigma-Aldrich) in PBS. Antibodies, including 4- HNE (1:500, AbCam, ab48506), Iba1 (1:2,000, AbCam, ab5076), GFAP (Abcam, ab53554), phospho- tau (1:1,000, Thermo, MN1020) and amyloid β (1:1,000, AbCam, ab201060) diluted in PBS with 10% DNS were incubated at 4°C overnight. The next day, the slices were washed x3 times in PBS, and secondary antibodies including donkey anti goat A l e x a Fluor 568 (AbCam, ab175704), donkey anti-mouse Cy 5 (Jackson Immuno Research, 715- 175- 151) and donkey anti-rabbit DyLight 488 (AbCam, ab98488) all diluted 1:500 in PBS with 1% BSA, were applied to the slices at RT for 2 h. Following the incubation, the slices were washed x3 times in PBS, mounted onto gl ass slides, were uniformly covered in DAPI containing Vectashield (H-1200) and coverslips were a dde d. […]

[1] = Solubility in water / saline; assay type: physicochemical

T1 sequence (P15559 whole entry): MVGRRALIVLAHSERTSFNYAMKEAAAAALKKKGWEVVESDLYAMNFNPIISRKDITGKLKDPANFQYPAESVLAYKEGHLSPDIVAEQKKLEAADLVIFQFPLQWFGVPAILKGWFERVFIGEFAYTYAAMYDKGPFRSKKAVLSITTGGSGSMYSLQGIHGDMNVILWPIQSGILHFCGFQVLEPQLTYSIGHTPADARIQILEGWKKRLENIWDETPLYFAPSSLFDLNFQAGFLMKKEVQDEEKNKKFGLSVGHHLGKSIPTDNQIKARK

SMILES: Cc1ccc(-c2cn3cccc(C)c3n2)cc1S(=O)(=O)N1CCNCC1 [YB-537]
IC50 (QR1): > 9.99 µM | p-tau normalized volume (individual mice) (p-tau; Females): 0.0465 and 0.0384 and 0.0492 and 0.0132 and 0.0255 and 0.0111 and 0.0090 | p-tau normalized volume (individual mice) (p-tau; Males): 0.0610 and 0.0859 and 0.0662 and 0.0488 and 0.0445 and 0.0550 and 0.1044 and 0.0487 and 0.0628 | p-tau normalized volume (individual mice) (p-tau; Males + Females): 0.0465 and 0.0384 and 0.0492 and 0.0550 and 0.1044 and 0.0487 and 0.0628 and 0.0610 and 0.0859 and 0.0662 and 0.0488 and 0.0445 and 0.0132 and 0.0255 and 0.0111 and 0.0090 | Figure 9C, IHC signal (p-tau; Cortex): 0.0130 and 0.0160 and 0.0210 and 0.0219 and 0.0108 and 0.0168 and 0.0118 and 0.0284 and 0.0147 | Sup. Fig. 6-1C, IHC signal (p-tau; Females): 0.0087 and 0.0158 and 0.0323 and 0.0264 and 0.0119 and 0.0169 and 0.0098 | Figure 9C, IHC signal (p-tau; Hippocampus): 0.0315 and 0.0219 and 0.0395 and 0.0356 and 0.0234 and 0.0118 and 0.0425 and 0.0378 and 0.0364 | Sup. Fig. 6-1C, IHC signal (p-tau; Males): 0.0177 and 0.0343 and 0.0259 and 0.0422 and 0.0294 and 0.0273 and 0.0409 and 0.0167 and 0.0342 | p-Tau vs vehicle (p-tau; females): unchanged | p-Tau vs vehicle (p-tau; males): unchanged | p-Tau vs vehicle (p-tau; total population): unchanged | solubility in water [1]: complete solution; also recorded: water soluble | solubility in saline vehicle ([1]; PK formulations 2 and 10 mg/ml, HCl salt): fully dissolved

IC50 (QR1): > 9.99 µM
SMILES: Cc1ccc(-c2cn3cccc(C)c3n2)cc1S(=O)(=O)N1CCC(C)CC1 [YB-800]
